Where two headings read alike, the source gives them in different places.
How the values were obtained:
MCR-4 = target: T1, MCR-4 (Homo sapiens, UniProt P32245); assay: Melanocortin receptor binding assay, competition with 125I-HP 467, HEK 293 cells expressing hMCR-4; details: inhibition of binding of 125I-HP 467, HEK 293 cells expressing MCR-4; for IC50: read-out: MC-4 IC50
T1 construct: expressed in transfected cells; host or cells: HEK 293
Experimental: All cell culture media and reagents were obtained from GibcoBRL (Gaithersburg Md.), except for COSMIC CALF SERUM (HyClone; Logan Utah).
Cells were suspended in PBS, 10% COSMIC CALF SERUM and 1 mM CaCl2. Cell suspensions were prepared at a density of 2×10^4 cells/ml for HEK 293 cells expressing hMCR-3, hMCR-4 or hMCR-5, and 1×10^5 cells/ml for HEK 293 cells expressing hMCR-1. Suspensions were placed in a water bath and allowed to warm to 37° C. for 1 hr.
Binding assays were performed in a total volume of 250 μl for HEK 293 cells. […] To each tube was added 4×10^3 HEK 293 cells expressing hMCR-3, hMCR-4 or hMCR-5, or 2×10^4 cells expressing hMCR-1. Assays were incubated for 2.5 hr at 37° C.
GF/B filter plates were prepared by soaking for at least one hour in 5 mg/ml BSA and 10 mM CaCl2. Assays were filtered using a Brandel 96-well cell harvester (Brandel Inc.; Gaithersburg, Md.). The filters were washed four times with cold 50 mM Tris, pH 7.4, the filter plates were dehydrated for 2 hr and 35 μl of MICROSCINT was added to each well. Filter plates were counted using a Packard Topcount (Packard Instrument Co.) and data analyzed using GraphPad PRISM v2.0 (GraphPad Software Inc.; San Diego Calif.) and Microsoft EXCEL v5.0a (Microsoft Corp.; Redmond Wash.).
To assay isoquinoline compounds, binding assays were performed in duplicate in a 96 well format. […] A 0.2 ml aliquot of suspended cells was added to each well to give the cell numbers indicate above, and the cells were incubated at 37° C. for 2.5 hr. Cells were harvested on GF/B filter plates as described above and counted.

MCR-1 = target: T2, MCR-1 (Homo sapiens, UniProt Q01726); assay: Melanocortin receptor binding assay, competition with 125I-HP 467, HEK 293 cells expressing hMCR-1; details: inhibition of binding of 125I-HP 467, HEK 293 cells expressing MCR-1; for IC50: read-out: MC-1 IC50
T2 construct: expressed in transfected cells; host or cells: HEK 293
T2 sequence (Q01726 whole entry): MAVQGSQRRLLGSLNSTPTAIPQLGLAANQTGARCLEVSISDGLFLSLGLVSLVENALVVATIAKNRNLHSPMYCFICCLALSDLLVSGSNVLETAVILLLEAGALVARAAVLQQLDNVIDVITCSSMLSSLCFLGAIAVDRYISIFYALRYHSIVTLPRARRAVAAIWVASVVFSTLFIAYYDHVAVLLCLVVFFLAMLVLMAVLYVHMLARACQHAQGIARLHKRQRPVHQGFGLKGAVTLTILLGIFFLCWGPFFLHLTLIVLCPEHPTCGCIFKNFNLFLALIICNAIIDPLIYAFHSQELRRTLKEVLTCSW
Method in brief: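 Test compounds compete on intact HEK 293 cells carrying hMCR-1 (2×10^4 per tube) or hMCR-4 (4×10^3 per tube), suspended in PBS, 10% calf serum, 1 mM CaCl2.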

T1 sequence (P32245 whole entry): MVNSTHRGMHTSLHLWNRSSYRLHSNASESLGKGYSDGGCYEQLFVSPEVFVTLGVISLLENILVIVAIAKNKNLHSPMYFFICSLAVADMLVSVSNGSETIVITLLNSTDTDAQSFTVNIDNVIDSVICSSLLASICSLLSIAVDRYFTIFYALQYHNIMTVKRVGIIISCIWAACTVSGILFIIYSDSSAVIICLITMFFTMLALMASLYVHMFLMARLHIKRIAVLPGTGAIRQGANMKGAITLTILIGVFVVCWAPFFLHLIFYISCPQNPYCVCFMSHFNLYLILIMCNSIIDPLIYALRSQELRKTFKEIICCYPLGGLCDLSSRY

IC50 (MCR-4; TRG 2414 library) | IC50 (MCR-1; TRG 2414 library) | Structure (SMILES) | further results
1.47 µM | 1.07 µM | CCCOc1ccc(C2C(CNCCc3ccc(OC)cc3)c3ccccc3CN2CCCCC(CN)NCc2ccccc2)cc1 (centres unmarked) [Cmpd 187] | –
4.07 µM | 1.38 µM | CCCOc1ccc(C2C(CNC3CCCCCC3)c3ccccc3CN2CCCCC(CN)NCc2ccccc2)cc1 (centres unmarked) [Cmpd 195] | –
12.6 µM | 0.419 µM | CCCOc1ccc(C2C(CNC3CCCCC3)c3ccccc3CN2CCCCC(N)CN)cc1 (centres unmarked) [Cmpd 197] | –
5.15 µM | 1.29 µM | CCCOc1ccc(C2C(CNC3CCCCC3)c3ccccc3CN2CCCCC(CN)NCc2ccccc2)cc1 (centres unmarked) [Cmpd 199] | –
16.8 µM | 7.59 µM | CCCOc1ccc(C2C(CNC3CCCCC3)c3ccccc3CN2CCCCC(CN)NCC(C)c2ccc(CC(C)C)cc2)cc1 (centres unmarked) [Cmpd 200] | –
6.2 µM | 7.04 µM | CCOc1ccccc1CNCC1c2ccccc2CN(CCCCC(CN)NCCc2ccccc2)C1c1ccccc1Br (centres unmarked) [Cmpd 206] | –
6.43 µM | 7.67 µM | CCOc1ccccc1CNCC1c2ccccc2CN(CCCCC(CN)NCc2ccccc2)C1c1ccccc1Br (centres unmarked) [Cmpd 207] | –
1.37 µM | 1.71 µM | COc1ccccc1CCNCC1c2ccccc2CN(CCCCC(N)CN)C1c1ccccc1Br (centres unmarked) [Cmpd 209] | –
2.06 µM | 6.48 µM | NCC(N)CCCCN1Cc2ccccc2C(CNCCc2cccc(Cl)c2)C1c1ccccc1Br (centres unmarked) [Cmpd 213] | –
9.59 µM | 10.3 µM | COc1cccc(CNCC2c3ccccc3CN(CCCCC(CN)NCc3ccccc3)C2c2ccccc2Br)c1 (centres unmarked) [Cmpd 219] | –
35.1 µM | 40.6 µM | COc1cccc(CNCC2c3ccccc3CN(CCCCC(CN)NCC(C)c3ccc(CC(C)C)cc3)C2c2ccccc2Br)c1 (centres unmarked) [Cmpd 220] | –
22.7 µM | 31.5 µM | COc1ccc(CNCC2c3ccccc3CN(CCCCC(CN)NCC(C)c3ccc(CC(C)C)cc3)C2c2ccccc2Br)cc1 (centres unmarked) [Cmpd 224] | –
3.42 µM | 5.17 µM | COc1ccc(CCNCC2c3ccccc3CN(CCCCC(CN)NCCc3ccccc3)C2c2ccccc2Br)cc1 (centres unmarked) [Cmpd 226] | –
9.13 µM | 11 µM | NCC(CCCCN1Cc2ccccc2C(CNCc2ccccc2)C1c1ccccc1Br)NCc1ccccc1 (centres unmarked) [Cmpd 231] | –
23.4 µM | 32.7 µM | CC(C)Cc1ccc(C(C)CNC(CN)CCCCN2Cc3ccccc3C(CNCc3ccccc3)C2c2ccccc2Br)cc1 (centres unmarked) [Cmpd 232] | –

Second part, the compound before the results:

Structure (SMILES) | IC50 (MCR-4; TRG 2414 library) | IC50 (MCR-1; TRG 2414 library) | further results
CCNc1ccc(C2C(CN)c3ccccc3CN2CCCC[C@@H](CN)NCCCCOc2ccccc2)cc1 (some centres unmarked) [2424#8] | – | – | IC50 (MCR-4): 5.18 µM; IC50 (MCR-1): 0.22 µM
CCNc1ccc(C2C(CNCCc3ccccc3)c3ccccc3CN2CCCC[C@@H](CN)NCCCCOc2ccccc2)cc1 (some centres unmarked) [2424#11] | – | – | IC50 (MCR-4): 3.52 µM; IC50 (MCR-1): 0.21 µM
CCCOc1ccc(C2C(CNCCc3ccc(OC)cc3)c3ccccc3CN2CCCCC(N)CN)cc1 (centres unmarked) [Cmpd 185] | 4.26 µM | 0.542 µM | –
CCCOc1ccc(C2C(CNCCc3ccc(OC)cc3)c3ccccc3CN2CCCCC(CN)NCCc2ccccc2)cc1 (centres unmarked) [Cmpd 186] | 8.09 µM | 2.81 µM | –
CCCOc1ccc(C2C(CNCCc3ccc(OC)cc3)c3ccccc3CN2CCCCC(CN)NCC(C)c2ccc(CC(C)C)cc2)cc1 (centres unmarked) [Cmpd 188] | 20 µM | 7.9 µM | –
CCCOc1ccc(C2C(CNCc3ccccc3)c3ccccc3CN2CCCCC(N)CN)cc1 (centres unmarked) [Cmpd 189] | 2.31 µM | 0.869 µM | –
CCCOc1ccc(C2C(CNCc3ccccc3)c3ccccc3CN2CCCCC(CN)NCCc2ccccc2)cc1 (centres unmarked) [Cmpd 190] | 5.42 µM | 1.44 µM | –
CCCOc1ccc(C2C(CNCc3ccccc3)c3ccccc3CN2CCCCC(CN)NCc2ccccc2)cc1 (centres unmarked) [Cmpd 191] | 5.53 µM | 1.95 µM | –
CCCOc1ccc(C2C(CNC3CCCCCC3)c3ccccc3CN2CCCCC(N)CN)cc1 (centres unmarked) [Cmpd 193] | 6.59 µM | 1.64 µM | –
CCCOc1ccc(C2C(CNC3CCCCCC3)c3ccccc3CN2CCCCC(CN)NCCc2ccccc2)cc1 (centres unmarked) [Cmpd 194] | 5.09 µM | 3.86 µM | –
CCCOc1ccc(C2C(CNC3CCCCCC3)c3ccccc3CN2CCCCC(CN)NCC(C)c2ccc(CC(C)C)cc2)cc1 (centres unmarked) [Cmpd 196] | 37 µM | 13.3 µM | –
CCCOc1ccc(C2C(CNC3CCCCC3)c3ccccc3CN2CCCCC(CN)NCCc2ccccc2)cc1 (centres unmarked) [Cmpd 198] | 3.68 µM | 3 µM | –
NCC(N)CCCCN1Cc2ccccc2C(CNCc2ccccc2C(F)(F)F)C1c1ccccc1Br (centres unmarked) [Cmpd 201] | – | – | MC-4 IC50 (MCR-4; TRG 2414 library): no fit; MC-1 IC50 (MCR-1; TRG 2414 library): no fit
NCC(CCCCN1Cc2ccccc2C(CNCc2ccccc2C(F)(F)F)C1c1ccccc1Br)NCCc1ccccc1 (centres unmarked) [Cmpd 202] | 34.1 µM | 21.8 µM | –
NCC(CCCCN1Cc2ccccc2C(CNCc2ccccc2C(F)(F)F)C1c1ccccc1Br)NCc1ccccc1 (centres unmarked) [Cmpd 203] | 39.6 µM | 30.2 µM | –
CC(C)Cc1ccc(C(C)CNC(CN)CCCCN2Cc3ccccc3C(CNCc3ccccc3C(F)(F)F)C2c2ccccc2Br)cc1 (centres unmarked) [Cmpd 204] | – | – | MC-4 IC50 (MCR-4; TRG 2414 library): no fit; MC-1 IC50 (MCR-1; TRG 2414 library): no fit
CCOc1ccccc1CNCC1c2ccccc2CN(CCCCC(CN)NCC(C)c2ccc(CC(C)C)cc2)C1c1ccccc1Br (centres unmarked) [Cmpd 208] | 21.1 µM | 34.4 µM | –
COc1ccccc1CCNCC1c2ccccc2CN(CCCCC(CN)NCCc2ccccc2)C1c1ccccc1Br (centres unmarked) [Cmpd 210] | 4.43 µM | 3.7 µM | –
COc1ccccc1CCNCC1c2ccccc2CN(CCCCC(CN)NCc2ccccc2)C1c1ccccc1Br (centres unmarked) [Cmpd 211] | 4.21 µM | 3.56 µM | –

Structure (SMILES) | IC50 (MCR-4; TRG 2414 library) | IC50 (MCR-1; TRG 2414 library) | further results
COc1ccccc1CCNCC1c2ccccc2CN(CCCCC(CN)NCC(C)c2ccc(CC(C)C)cc2)C1c1ccccc1Br (centres unmarked) [Cmpd 212] | 16.6 µM | 18.3 µM | –
NCC(CCCCN1Cc2ccccc2C(CNCCc2cccc(Cl)c2)C1c1ccccc1Br)NCCc1ccccc1 (centres unmarked) [Cmpd 214] | 4.76 µM | 7.38 µM | –
NCC(CCCCN1Cc2ccccc2C(CNCCc2cccc(Cl)c2)C1c1ccccc1Br)NCc1ccccc1 (centres unmarked) [Cmpd 215] | 6.43 µM | 8.51 µM | –
CC(C)Cc1ccc(C(C)CNC(CN)CCCCN2Cc3ccccc3C(CNCCc3cccc(Cl)c3)C2c2ccccc2Br)cc1 (centres unmarked) [Cmpd 216] | 39 µM | 48.3 µM | –
COc1cccc(CNCC2c3ccccc3CN(CCCCC(N)CN)C2c2ccccc2Br)c1 (centres unmarked) [Cmpd 217] | 2.42 µM | 5.56 µM | –
COc1cccc(CNCC2c3ccccc3CN(CCCCC(CN)NCCc3ccccc3)C2c2ccccc2Br)c1 (centres unmarked) [Cmpd 218] | 10.8 µM | 8.2 µM | –
COc1ccc(CNCC2c3ccccc3CN(CCCCC(N)CN)C2c2ccccc2Br)cc1 (centres unmarked) [Cmpd 221] | 1.83 µM | 6.61 µM | –
COc1ccc(CNCC2c3ccccc3CN(CCCCC(CN)NCCc3ccccc3)C2c2ccccc2Br)cc1 (centres unmarked) [Cmpd 222] | 4.78 µM | 5.05 µM | –
COc1ccc(CNCC2c3ccccc3CN(CCCCC(CN)NCc3ccccc3)C2c2ccccc2Br)cc1 (centres unmarked) [Cmpd 223] | 8.22 µM | 10.6 µM | –
COc1ccc(CCNCC2c3ccccc3CN(CCCCC(N)CN)C2c2ccccc2Br)cc1 (centres unmarked) [Cmpd 225] | 2.04 µM | 4.52 µM | –
COc1ccc(CCNCC2c3ccccc3CN(CCCCC(CN)NCc3ccccc3)C2c2ccccc2Br)cc1 (centres unmarked) [Cmpd 227] | 3.71 µM | 4.49 µM | –
COc1ccc(CCNCC2c3ccccc3CN(CCCCC(CN)NCC(C)c3ccc(CC(C)C)cc3)C2c2ccccc2Br)cc1 (centres unmarked) [Cmpd 228] | 8.79 µM | 17.7 µM | –
NCC(N)CCCCN1Cc2ccccc2C(CNCc2ccccc2)C1c1ccccc1Br (centres unmarked) [Cmpd 229] | 1.29 µM | 8.63 µM | –
NCC(CCCCN1Cc2ccccc2C(CNCc2ccccc2)C1c1ccccc1Br)NCCc1ccccc1 (centres unmarked) [Cmpd 230] | 5.46 µM | 6.48 µM | –
NCC(N)CCCCN1Cc2ccccc2C(CNC2CCCCCC2)C1c1ccccc1Br (centres unmarked) [Cmpd 233] | 3.27 µM | 3.32 µM | –
NCC(CCCCN1Cc2ccccc2C(CNC2CCCCCC2)C1c1ccccc1Br)NCCc1ccccc1 (centres unmarked) [Cmpd 234] | 5.28 µM | 4.41 µM | –
NCC(CCCCN1Cc2ccccc2C(CNC2CCCCCC2)C1c1ccccc1Br)NCc1ccccc1 (centres unmarked) [Cmpd 235] | 5.35 µM | 2.86 µM | –
CC(C)Cc1ccc(C(C)CNC(CN)CCCCN2Cc3ccccc3C(CNC3CCCCCC3)C2c2ccccc2Br)cc1 (centres unmarked) [Cmpd 236] | 18 µM | 14 µM | –
